Data reported in patent US20230015823A1, “METHODS OF ADMINISTERING VOXELOTOR” (Global Blood Therapeutics, Inc., priority 2019, published 2023).
In brackets after ≈: the same amount, converted by molar mass.

Key:
[1] = target: OATP1B1 (Homo sapiens, UniProt Q9Y6L6); test: In vitro transporter studies: OATP1B1; assay type: in vitro ADME
[2] = Drug substance properties (solubility, hygroscopicity); assay type: physicochemical; conditions: crystalline Form II free base
Text: Voxelotor, the active drug substance, is a white-to-yellow-to-beige compound in crystalline Form II of its free base. It is non-hygroscopic.

Chain of OATP1B1 (Q9Y6L6 whole entry): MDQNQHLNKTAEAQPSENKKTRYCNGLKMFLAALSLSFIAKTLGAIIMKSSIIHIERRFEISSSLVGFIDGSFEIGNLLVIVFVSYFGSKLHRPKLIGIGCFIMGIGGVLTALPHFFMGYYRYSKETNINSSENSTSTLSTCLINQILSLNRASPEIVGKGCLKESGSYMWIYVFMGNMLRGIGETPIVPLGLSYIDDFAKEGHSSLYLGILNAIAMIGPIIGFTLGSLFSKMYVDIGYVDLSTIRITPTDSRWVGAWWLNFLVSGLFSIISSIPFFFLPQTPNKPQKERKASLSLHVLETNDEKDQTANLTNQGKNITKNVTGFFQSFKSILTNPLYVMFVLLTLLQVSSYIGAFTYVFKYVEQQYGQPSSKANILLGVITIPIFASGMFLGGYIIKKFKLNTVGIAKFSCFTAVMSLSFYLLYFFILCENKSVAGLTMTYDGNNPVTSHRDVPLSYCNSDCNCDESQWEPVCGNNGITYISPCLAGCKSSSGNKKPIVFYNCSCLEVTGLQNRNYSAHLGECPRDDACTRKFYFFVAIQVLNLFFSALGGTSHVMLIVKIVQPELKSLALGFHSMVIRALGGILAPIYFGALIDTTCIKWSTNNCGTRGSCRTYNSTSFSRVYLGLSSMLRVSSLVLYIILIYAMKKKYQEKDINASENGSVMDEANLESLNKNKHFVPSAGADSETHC

Question: For CC(C)n1nccc1-c1ncccc1COc1cccc(O)c1C=O [voxelotor, 2-hydroxy-6-((2-(1-isopropyl-1H-pyrazol-5-yl)pyridin-3-yl)methoxy)benzaldehyde], which “inhibition of OATP1B1” value [1] is on record?
Answer: not an inhibitor

Question: What about the “substrate of OATP1B1” value [1] of the same compound?
Answer: not a substrate

Question: And the hygroscopicity [2]?
Answer: non-hygroscopic

Question: What about the “solubility in common organic solvents such as acetone and toluene” value [2] of the same compound?
Answer: highly soluble

Question: What about the solubility ([2]; water) of the same compound?
Answer: ~30 µg/mL (≈ 88.9 µM)
